According to patent publication US10538555B2, “Macrocyclic inhibitors of the PD-1/PD-L1 and CD80(B7-1)/PD-L1 protein/protein interactions” (BRISTOL-MYERS SQUIBB COMPANY, priority 2014, dated 2020):
Where a SMILES comes first, the peptide text is derived from it. Bridges are numbered along the chain shown (N, C = ends). [ ]: non-standard residue; d: D form. ξ: configuration not given here. Hyp = O=C(O)[C@@H]1C[C@@H](O)CN1; NMeNle = CCCC[C@H](NC)C(=O)O; hSer = N[C@@H](CCO)C(=O)O; NMeA = CN[C@@H](C)C(=O)O; Orn = NCCC[C@H](N)C(=O)O; Dab = NCC[C@H](N)C(=O)O; Dap = NC[C@H](N)C(=O)O; ξC = NC(CS)C(=O)O

Target: T1, Human PD-L1/PD-1 (Homo sapiens, UniProt Q9NZQ7)
T1 construct: TVMV protease cleavage site (C); made in house; host or cells: HEK293T cells
T1 sequence (Q9NZQ7 with tags, fused parts or gaps): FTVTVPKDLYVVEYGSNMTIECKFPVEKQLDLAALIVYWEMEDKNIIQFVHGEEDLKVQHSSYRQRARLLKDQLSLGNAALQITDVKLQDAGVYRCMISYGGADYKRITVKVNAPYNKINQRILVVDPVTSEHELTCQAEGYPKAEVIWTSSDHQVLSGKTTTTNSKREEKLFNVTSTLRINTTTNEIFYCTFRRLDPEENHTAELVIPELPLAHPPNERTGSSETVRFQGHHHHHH
Assay: HTRF Human PD-L1/PD-1 binding assay (PD-1-Ig/PD-L1-His)
Conditions: PD-L1-His 10 nM, PD-1-Ig 20 nM; class symbol; read-out: HTRF Human PD-L1/PD-1 Binding Assay IC50 Range
Method in brief: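 HTRF read-out (665/620 nm ratio) after 30 min equilibration with Eu-cryptate anti-Ig mAb (1 nM) and APC anti-His mAb (20 nM). Peptides preincubated 15 min with PD-L1-His (10 nM), then PD-1-Ig (20 nM) added for 15 min.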

IC50, 1 to 10 µM:
CCCC[C@H]1C(=O)N[C@@H](CC(N)=O)C(=O)N2CCC[C@H]2C(=O)N[C@@H](CO)C(=O)N[C@@H](CCO)C(=O)N2CCC[C@H]2C(=O)N[C@@H](Cc2c[nH]c3ccccc23)C(=O)N[C@@H](CCCN)C(=O)N[C@@H](Cc2c[nH]c3ccccc23)C(=O)N(C)[C@@H](C)C(=O)N(C)[C@@H](C)C(=O)N[C@@H](CCCNC(=N)N)C(=O)NC(C(=O)NCC(N)=O)CSCC(=O)N[C@@H](Cc2ccc(O)cc2)C(=O)N1C (stereo partly drawn) [Example 10198] ({CH2CO}-Y[NMeNle]NPS[hSer]PW[Orn]W[NMeA][NMeA]R[ξC]G-NH2; thioether N-14)
CCCC[C@H]1C(=O)N[C@@H](CC(N)=O)C(=O)N2CCC[C@H]2C(=O)N[C@@H](CO)C(=O)N[C@@H](CCO)C(=O)N2C[C@H](O)C[C@H]2C(=O)N[C@@H](Cc2c[nH]c3ccccc23)C(=O)N[C@@H](CN)C(=O)N[C@@H](Cc2c[nH]c3ccccc23)C(=O)N(C)[C@@H](C)C(=O)N(C)[C@@H](C)C(=O)N[C@@H](CCCNC(=N)N)C(=O)NC(C(=O)NCC(N)=O)CSCC(=O)N[C@@H](Cc2ccc(O)cc2)C(=O)N1C (stereo partly drawn) [Example 10199] ({CH2CO}-Y[NMeNle]NPS[hSer][Hyp]W[Dap]W[NMeA][NMeA]R[ξC]G-NH2; thioether N-14)
CCCC[C@H]1C(=O)N[C@@H](CC(N)=O)C(=O)N2CCC[C@H]2C(=O)N[C@@H](CO)C(=O)N[C@@H](CCO)C(=O)N2C[C@H](O)C[C@H]2C(=O)N[C@@H](Cc2c[nH]c3ccccc23)C(=O)N[C@@H](CCN)C(=O)N[C@@H](Cc2c[nH]c3ccccc23)C(=O)N(C)[C@@H](C)C(=O)N(C)[C@@H](C)C(=O)N[C@@H](CCCNC(=N)N)C(=O)NC(C(=O)NCC(N)=O)CSCC(=O)N[C@@H](Cc2ccc(O)cc2)C(=O)N1C (stereo partly drawn) [Example 10200] ({CH2CO}-Y[NMeNle]NPS[hSer][Hyp]W[Dab]W[NMeA][NMeA]R[ξC]G-NH2; thioether N-14)
CCCC[C@H]1C(=O)N[C@@H](CC(N)=O)C(=O)N2CCC[C@H]2C(=O)N[C@@H](CO)C(=O)N[C@@H](CCO)C(=O)N2C[C@H](O)C[C@H]2C(=O)N[C@@H](Cc2c[nH]c3ccccc23)C(=O)N[C@@H](CCCN)C(=O)N[C@@H](Cc2c[nH]c3ccccc23)C(=O)N(C)[C@@H](C)C(=O)N(C)[C@@H](C)C(=O)N[C@@H](CCCNC(=N)N)C(=O)NC(C(=O)NCC(N)=O)CSCC(=O)N[C@@H](Cc2ccc(O)cc2)C(=O)N1C (stereo partly drawn) [Example 10201] ({CH2CO}-Y[NMeNle]NPS[hSer][Hyp]W[Orn]W[NMeA][NMeA]R[ξC]G-NH2; thioether N-14)
CCCC[C@H]1C(=O)N[C@@H](CC(N)=O)C(=O)N2CCC[C@H]2C(=O)N[C@@H](CO)C(=O)N[C@@H](CCO)C(=O)N2CCC[C@H]2C(=O)N[C@@H](Cc2c[nH]c3ccccc23)C(=O)N[C@@H](CN)C(=O)N[C@@H](Cc2c[nH]c3ccccc23)C(=O)N(C)[C@@H](C)C(=O)N(C)[C@@H](C)C(=O)N[C@@H](CCCNC(=N)N)C(=O)NC(C(=O)NCC(N)=O)CSCC(=O)N[C@@H](Cc2ccc(O)cc2)C(=O)N1C (stereo partly drawn) [Example 10202] ({CH2CO}-Y[NMeNle]NPS[hSer]PW[Dap]W[NMeA][NMeA]R[ξC]G-NH2; thioether N-14)
CCCC[C@H]1C(=O)N[C@@H](CC(N)=O)C(=O)N2CCC[C@H]2C(=O)N[C@@H](CO)C(=O)N[C@@H](CCO)C(=O)N2CCC[C@H]2C(=O)N[C@@H](Cc2c[nH]c3ccccc23)C(=O)N[C@@H](CCN)C(=O)N[C@@H](Cc2c[nH]c3ccccc23)C(=O)N(C)[C@@H](C)C(=O)N(C)[C@@H](C)C(=O)N[C@@H](CCCNC(=N)N)C(=O)NC(C(=O)NCC(N)=O)CSCC(=O)N[C@@H](Cc2ccc(O)cc2)C(=O)N1C (stereo partly drawn) [Example 10203] ({CH2CO}-Y[NMeNle]NPS[hSer]PW[Dab]W[NMeA][NMeA]R[ξC]G-NH2; thioether N-14)
